{
  "source": "patent US11332479B2",
  "about": "“Imidazooxazole derivative having antitumor effect, and pharmaceutical composition including same” (KOREA INSTITUTE OF SCIENCE AND TECHNOLOGY, priority 2016, dated 2022)",
  "key": {"V600E-B-RAF": {"target": "V600E-B-RAF (Homo sapiens (Human), UniProt P15056, V600E)", "sequence (P15056 whole entry V600E)": "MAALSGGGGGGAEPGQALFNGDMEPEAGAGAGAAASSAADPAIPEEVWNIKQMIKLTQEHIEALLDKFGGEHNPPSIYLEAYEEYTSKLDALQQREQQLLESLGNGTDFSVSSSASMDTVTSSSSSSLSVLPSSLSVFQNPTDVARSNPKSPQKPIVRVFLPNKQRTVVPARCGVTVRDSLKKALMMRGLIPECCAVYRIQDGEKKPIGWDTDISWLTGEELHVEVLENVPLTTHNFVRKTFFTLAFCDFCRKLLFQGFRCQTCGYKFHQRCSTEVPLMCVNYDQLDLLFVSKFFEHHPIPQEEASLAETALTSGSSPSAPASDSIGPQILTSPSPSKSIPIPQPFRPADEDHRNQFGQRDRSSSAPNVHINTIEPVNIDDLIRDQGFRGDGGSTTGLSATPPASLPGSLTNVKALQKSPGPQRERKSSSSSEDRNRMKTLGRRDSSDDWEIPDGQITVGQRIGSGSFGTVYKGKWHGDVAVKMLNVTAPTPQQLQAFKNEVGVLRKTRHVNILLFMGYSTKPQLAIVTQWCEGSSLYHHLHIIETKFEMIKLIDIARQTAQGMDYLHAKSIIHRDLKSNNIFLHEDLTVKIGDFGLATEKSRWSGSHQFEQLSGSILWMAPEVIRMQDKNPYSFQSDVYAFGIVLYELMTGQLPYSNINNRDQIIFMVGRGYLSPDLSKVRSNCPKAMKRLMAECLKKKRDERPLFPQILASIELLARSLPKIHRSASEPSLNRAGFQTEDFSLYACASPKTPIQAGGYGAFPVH", "experiment": "Protein kinase enzymatic activity (Reaction Biology kinase hotspot), V600E-B-RAF", "assay_type": "biochemical", "details": "for pIC50: read-out: Inhibitory effect against kinase activity of V600E-B-RAF (IC50); for Inhibitory effect against enzymatic activity of V600E-RAF, in words: compared with GW5074 and vemurafenib", "method": "(§1) Reaction biology kinase hotspot service (http://www.reactionbiology.com) was used to measure IC50. In a final reaction volume of 25 μL, kinase (5 mU to 10 mU) was incubated with 25 mM Tris (pH 7.5), 0.02 mM EGTA, 0.66 mg/ml of myelin basic protein, 10 mM magnesium acetate, and [^33P-ATP] (specific activity of about 500 CPM/pmol, concentration as required). The reaction was initiated by addition of Mg-ATP mix. After incubation for 40 min at room temperature, the reaction was stopped by addition of 5 μl of a 3% phosphoric acid solution. 10 μL of the reaction was then spotted onto a P30 filtermat and washed three times for 5 minutes in 75 mM phosphoric acid and once in methanol prior to drying and scintillation counting."}, "B-RAF": {"target": "B-RAF (Homo sapiens (Human), UniProt P15056)", "sequence (P15056 whole entry)": "as the sequence (P15056 whole entry V600E) above, with E600V counted along it", "experiment": "Protein kinase enzymatic activity (Reaction Biology kinase hotspot), B-RAF", "assay_type": "biochemical", "details": "for Inhibitory effect against enzymatic activity of B-RAF, in words: compared with GW5074 and vemurafenib; for pIC50: read-out: Inhibitory effect against kinase activity of B-RAF (IC50)", "method": "as §1"}, "C-RAF": {"target": "C-RAF (Homo sapiens (Human), UniProt P04049)", "sequence (P04049 whole entry)": "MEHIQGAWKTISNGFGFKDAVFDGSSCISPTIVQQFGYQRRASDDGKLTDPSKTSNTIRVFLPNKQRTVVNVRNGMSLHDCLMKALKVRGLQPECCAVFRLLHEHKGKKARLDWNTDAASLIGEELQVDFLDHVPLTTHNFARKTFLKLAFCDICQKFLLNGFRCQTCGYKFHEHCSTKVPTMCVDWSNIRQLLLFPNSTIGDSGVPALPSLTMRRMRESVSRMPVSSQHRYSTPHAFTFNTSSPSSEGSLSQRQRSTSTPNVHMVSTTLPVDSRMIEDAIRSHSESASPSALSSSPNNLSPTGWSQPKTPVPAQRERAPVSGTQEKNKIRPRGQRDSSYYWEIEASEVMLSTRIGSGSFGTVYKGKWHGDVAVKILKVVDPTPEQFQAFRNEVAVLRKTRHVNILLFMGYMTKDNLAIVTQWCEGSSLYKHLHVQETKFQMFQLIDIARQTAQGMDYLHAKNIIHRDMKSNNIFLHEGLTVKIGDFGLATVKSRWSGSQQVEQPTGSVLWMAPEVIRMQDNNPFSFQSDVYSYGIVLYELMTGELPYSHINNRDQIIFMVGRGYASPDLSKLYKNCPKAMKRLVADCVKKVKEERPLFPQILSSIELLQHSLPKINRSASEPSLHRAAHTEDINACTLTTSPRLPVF", "experiment": "Protein kinase enzymatic activity (Reaction Biology kinase hotspot), C-RAF", "assay_type": "biochemical", "details": "for Inhibitory effect against enzymatic activity of C-RAF, in words: compared with GW5074 and vemurafenib; for pIC50: read-out: Inhibitory effect against kinase activity of C-RAF (IC50)", "method": "as §1"}, "[1]": {"system": "A375P cell line xenograft", "experiment": "Tumor-inhibitory effects in melanoma xenograft mouse model", "assay_type": "in vivo, nude mice", "method": "In this experiment, A375P cell line which is a human-derived malignant melanoma cell line was subcutaneously administered to nude mice to prepare xenograft models, and the test material (compound 2II) was administered to the xenograft models to evaluate anti-cancer effects (G1: an excipient control group, G2: a group administered with 20 mg/kg/day of the test material, and G3: a group administered with 50 mg/kg/day of the test material)."}},
  "note": "pIC50: −log10 of the molar value.",
  "data": [
    {"smiles": "COc1cc(-c2nc3occn3c2-c2ccnc(NCCCNS(=O)(=O)c3ccc(Cl)cc3)n2)ccc1F", "note": "[60 IV, 4-chloro-N-(3-(4-(6-(4-fluoro-3-methoxyphenyl)imidazo[2,1-b]oxazol-5-yl)pyrimidin-2-ylamino)propyl)benzenesulfonamide]", "values": [
      {"measurement": "pIC50", "setting": "V600E-B-RAF", "result": 7.95}
    ]},
    {"smiles": "O=S(=O)(NCCNc1nccc(-c2c(-c3ccc(F)c(O)c3)nc3occn23)n1)c1ccc(F)cc1", "note": "[64 IV, 4-fluoro-N-(2-(4-(6-(4-fluoro-3-hydroxyphenyl)imidazo[2,1-b]oxazol-5-yl)pyrimidin-2-ylamino)ethyl)benzenesulfonamide]", "values": [
      {"measurement": "pIC50", "setting": "V600E-B-RAF", "result": 9.44}
    ]},
    {"smiles": "O=S(=O)(NCCNc1nccc(-c2c(-c3ccc(F)c(O)c3)nc3occn23)n1)c1ccc(Cl)cc1", "note": "[65 IV, 4-chloro-N-(2-(4-(6-(4-fluoro-3-hydroxyphenyl)imidazo[2,1-b]oxazol-5-yl)pyrimidin-2-ylamino)ethyl)benzenesulfonamide]", "values": [
      {"measurement": "pIC50", "setting": "V600E-B-RAF", "result": 9.43}
    ]},
    {"smiles": "O=S(=O)(NCCCNc1nccc(-c2c(-c3ccc(F)c(O)c3)nc3occn23)n1)c1ccc(Cl)cc1", "note": "[70 IV, 4-chloro-N-(3-(4-(6-(4-fluoro-3-hydroxyphenyl)imidazo[2,1-b]oxazol-5-yl)pyrimidin-2-ylamino)propyl)benzenesulfonamide]", "values": [
      {"measurement": "pIC50", "setting": "V600E-B-RAF", "result": 9.82}
    ]},
    {"smiles": "COc1ccc(S(=O)(=O)NCCCNc2nccc(-c3c(-c4ccc(F)c(O)c4)nc4occn34)n2)cc1", "note": "[72 IV, N-(3-(4-(6-(4-fluoro-3-hydroxyphenyl)imidazo[2,1-b]oxazol-5-yl)pyrimidin-2-ylamino)propyl)-4-methoxybenzenesulfonamide]", "values": [
      {"measurement": "pIC50", "setting": "V600E-B-RAF", "result": 10.10}
    ]},
    {"smiles": "O=S(=O)(NCCCNc1nccc(-c2c(-c3ccc(F)c(O)c3)nc3occn23)n1)c1ccccc1", "note": "[73 IV, N-(3-(4-(6-(4-fluoro-3-hydroxyphenyl)imidazo[2,1-b]oxazol-5-yl)pyrimidin-2-ylamino)propyl)benzenesulfonamide]", "values": [
      {"measurement": "pIC50", "setting": "V600E-B-RAF", "result": 9.80}
    ]},
    {"smiles": "CN1CCN(CCNc2nccc(-c3c(-c4cccc(O)c4)nc4occn34)n2)S1(=O)=O", "note": "[Compound 1II, 2-(2-((4-(6-(3-Hydroxylphenyl)imidazo[2,1-b]oxazol-5-yl)pyrimidin-2-yl)amino)ethyl)-5-methyl-1,2,5-thiadiazolidine 1,1-dioxide]", "values": [
      {"measurement": "Inhibitory effect against enzymatic activity of B-RAF, in words", "setting": "B-RAF", "result": "excellent inhibitory effects"},
      {"measurement": "Inhibitory effect against enzymatic activity of V600E-RAF, in words", "setting": "V600E-B-RAF", "result": "excellent inhibitory effects"},
      {"measurement": "Inhibitory effect against enzymatic activity of C-RAF, in words", "setting": "C-RAF", "result": "excellent inhibitory effects"},
      {"measurement": "pIC50", "setting": "C-RAF", "result": 8.53}
    ]},
    {"smiles": "CCN1CCN(CCNc2nccc(-c3c(-c4cccc(O)c4)nc4occn34)n2)S1(=O)=O", "note": "[Compound 2II, 2-Ethyl-5-(2-((4-(6-(3-hydroxylphenyl)imidazo[2,1-b]oxazol-5-yl)pyrimidin-2-yl)amino)ethyl)-1,2,5-thiadiazolidine 1,1-dioxide]", "values": [
      {"measurement": "Inhibitory effect against enzymatic activity of B-RAF, in words", "setting": "B-RAF", "result": "excellent inhibitory effects"},
      {"measurement": "Inhibitory effect against enzymatic activity of V600E-RAF, in words", "setting": "V600E-B-RAF", "result": "excellent inhibitory effects"},
      {"measurement": "General symptoms and deaths", "setting": "[1]; 20 and 50 mg/kg/day, twice per week for 3 weeks", "result": "no deaths or no abnormalities in general symptoms were observed"},
      {"measurement": "Tumor size, difference between all experimental groups", "setting": "[1]; G1, G2, G3", "result": "no significant difference"},
      {"measurement": "Body weight compared with control group (G1)", "setting": "[1]; G3, 50 mg/kg/day, 14 days and 21 days after administration", "result": "significantly low"},
      {"measurement": "Increase of the tumor size", "setting": "[1]; groups administered with 20 and 50 mg/kg/day", "result": "inhibited in a dose-dependent manner"},
      {"measurement": "Inhibitory effect against enzymatic activity of C-RAF, in words", "setting": "C-RAF", "result": "excellent inhibitory effects"},
      {"measurement": "pIC50", "setting": "C-RAF", "result": 9.12}
    ]},
    {"smiles": "O=S(=O)(NCCNc1nccc(-c2c(-c3cccc(O)c3)nc3sccn23)n1)c1ccc(F)cc1", "note": "[Compound 25III, 4-Fluoro-N-(2-((4-(6-(3-hydroxylphenyl)imidazo[2,1-b]thiazol-5-yl)pyrimidin-2-yl)amino)ethyl)benzenesulfonamide]", "values": [
      {"measurement": "Inhibitory effect against enzymatic activity of B-RAF, in words", "setting": "B-RAF", "result": "excellent inhibitory effects"},
      {"measurement": "Inhibitory effect against enzymatic activity of V600E-RAF, in words", "setting": "V600E-B-RAF", "result": "excellent inhibitory effects"},
      {"measurement": "Inhibitory effect against enzymatic activity of C-RAF, in words", "setting": "C-RAF", "result": "excellent inhibitory effects"}
    ]},
    {"smiles": "O=S(=O)(NCCCNc1nccc(-c2c(-c3cccc(O)c3)nc3sccn23)n1)c1ccc(F)cc1", "note": "[Compound 31III, 4-Fluoro-N-(3-((4-(6-(3-hydroxylphenyl)imidazo[2,1-b]thiazol-5-yl)pyrimidin-2-yl)amino)propyl)benzenesulfonamide]", "values": [
      {"measurement": "Inhibitory effect against enzymatic activity of B-RAF, in words", "setting": "B-RAF", "result": "excellent inhibitory effects"},
      {"measurement": "Inhibitory effect against enzymatic activity of V600E-RAF, in words", "setting": "V600E-B-RAF", "result": "excellent inhibitory effects"},
      {"measurement": "Inhibitory effect against enzymatic activity of C-RAF, in words", "setting": "C-RAF", "result": "excellent inhibitory effects"}
    ]},
    {"smiles": "CCN1CCN(CCNc2nccc(-c3c(-c4ccc(F)c(O)c4)nc4sccn34)n2)S1(=O)=O", "note": "[Compound 31II]", "values": [
      {"measurement": "pIC50", "setting": "B-RAF", "result": 8.38},
      {"measurement": "pIC50", "setting": "V600E-B-RAF", "result": 9.01},
      {"measurement": "pIC50", "setting": "C-RAF", "result": 8.11}
    ]},
    {"smiles": "COc1cc(-c2nc3sccn3c2-c2ccnc(NCCCNS(=O)(=O)c3ccc(F)cc3)n2)ccc1F", "note": "[Compound 37III, 4-Fluoro-N-(3-((4-(6-(4-fluoro-3-methoxyphenyl)imidazo[2,1-b]thiazol-5-yl)pyrimidin-2-yl)amino)propyl)benzenesulfonamide]", "values": [
      {"measurement": "pIC50", "setting": "B-RAF", "result": 8.06},
      {"measurement": "pIC50", "setting": "V600E-B-RAF", "result": 8.78},
      {"measurement": "pIC50", "setting": "C-RAF", "result": 7.86}
    ]},
    {"smiles": "COc1cc(-c2nc3sccn3c2-c2ccnc(NCCCNS(=O)(=O)c3ccc(Cl)cc3)n2)ccc1F", "note": "[Compound 38III, 4-chloro-N-(3-(4-(6-(4-fluoro-3-methoxyphenyl)imidazo[2,1-b]thiazol-5-yl)pyrimidin-2-ylamino)propyl)benzenesulfonamide]", "values": [
      {"measurement": "pIC50", "setting": "V600E-B-RAF", "result": 8.72}
    ]},
    {"smiles": "O=S(=O)(NCCCNc1nccc(-c2c(-c3ccc(F)c(O)c3)nc3sccn23)n1)c1ccc(F)cc1", "note": "[Compound 42III, 4-Fluoro-N-(3-((4-(6-(4-fluoro-3-hydroxyphenyl)imidazo[2,1-b]thiazol-5-yl)pyrimidin-2-yl)amino)propyl)benzenesulfonamide]", "values": [
      {"measurement": "pIC50", "setting": "V600E-B-RAF", "result": 9.44}
    ]},
    {"smiles": "O=S(=O)(NCCNc1nccc(-c2c(-c3ccc(F)c(O)c3)nc3sccn23)n1)c1ccc(Cl)cc1", "note": "[Compound 43III, 4-chloro-N-(2-(4-(6-(4-fluoro-3-hydroxyphenyl)imidazo[2,1-b]thiazol-5-yl)pyrimidin-2-ylamino)ethyl)benzenesulfonamide]", "values": [
      {"measurement": "pIC50", "setting": "V600E-B-RAF", "result": 8.16}
    ]},
    {"smiles": "O=S(=O)(NCCNc1nccc(-c2c(-c3ccc(F)c(O)c3)nc3sccn23)n1)c1ccccc1", "note": "[Compound 46III, N-(2-(4-(6-(4-fluoro-3-hydroxyphenyl)imidazo[2,1-b]thiazol-5-yl)pyrimidin-2-ylamino)ethyl)benzenesulfonamide]", "values": [
      {"measurement": "pIC50", "setting": "V600E-B-RAF", "result": 9.82}
    ]},
    {"smiles": "O=S(=O)(NCCCNc1nccc(-c2c(-c3ccc(F)c(O)c3)nc3sccn23)n1)c1ccc(Cl)cc1", "note": "[Compound 48III, 4-chloro-N-(3-(4-(6-(4-fluoro-3-hydroxyphenyl)imidazo[2,1-b]thiazol-5-yl)pyrimidin-2-ylamino)propyl)benzenesulfonamide]", "values": [
      {"measurement": "pIC50", "setting": "V600E-B-RAF", "result": 9.57}
    ]},
    {"smiles": "COc1ccc(S(=O)(=O)NCCCNc2nccc(-c3c(-c4ccc(F)c(O)c4)nc4sccn34)n2)cc1", "note": "[Compound 50III, N-(3-(4-(6-(4-fluoro-3-hydroxyphenyl)imidazo[2,1-b]thiazol-5-yl)pyrimidin-2-ylamino)propyl)-4-methoxybenzenesulfonamide]", "values": [
      {"measurement": "pIC50", "setting": "V600E-B-RAF", "result": 10.30}
    ]},
    {"smiles": "Nc1cc(-c2nc3sccn3c2-c2ccnc(NCCCNS(=O)(=O)c3ccc(F)cc3)n2)ccc1F", "note": "[Compound 52III, N-(3-((4-(6-(3-amino-4-fluorophenyl)imidazo[2,1-b]thiazol-5-yl)pyrimidin-2-yl)amino)propyl)-4-fluorobenzenesulfonamide]", "values": [
      {"measurement": "pIC50", "setting": "B-RAF", "result": 8.57},
      {"measurement": "pIC50", "setting": "V600E-B-RAF", "result": 8.99},
      {"measurement": "pIC50", "setting": "C-RAF", "result": 8.27}
    ]}
  ]
}
